Laboratory results as given in article PMC7290078, “Agonist bias and agonist‐dependent antagonism at corticotrophin releasing factor receptors” (Pharmacology Research & Perspectives, 2020).

Columns and labels:
CRF1 receptor = conditions: cited from earlier work
CRF1 receptor (hCRF1α) = biological target: T1, CRF1 receptor (hCRF1α) (Homo sapiens, UniProt P34998); test: Antagonism of agonist-mediated IP1 accumulation in Cos7 cells expressing CRF1 receptors; format: cell-based; conditions: for effect on agonist efficacy β: could not be determined, assumed; for allosteric effect α: operational model of allosterism; for antagonist potency (pKB): Gaddum method for insurmountable antagonism, mean ± SEM, n = 5
T1 construct: host or cells: Cos7 cells, transient transfection (PEI), pcDNA3.0/3.1 vector
T1 sequence (P34998 24-415): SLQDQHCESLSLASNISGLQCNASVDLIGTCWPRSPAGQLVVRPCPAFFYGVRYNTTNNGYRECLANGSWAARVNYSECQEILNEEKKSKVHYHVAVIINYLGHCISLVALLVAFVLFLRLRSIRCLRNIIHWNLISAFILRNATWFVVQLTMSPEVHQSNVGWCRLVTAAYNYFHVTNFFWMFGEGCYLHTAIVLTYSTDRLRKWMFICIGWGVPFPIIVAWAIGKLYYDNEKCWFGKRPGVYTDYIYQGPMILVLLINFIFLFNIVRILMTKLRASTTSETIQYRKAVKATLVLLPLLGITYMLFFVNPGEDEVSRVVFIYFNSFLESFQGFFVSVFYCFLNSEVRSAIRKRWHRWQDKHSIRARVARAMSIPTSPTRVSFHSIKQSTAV
Source text: (§1) Plasmids containing hCRF1α and hCRF2α (GenBank accession numbers AY457172 and AY449734) were obtained from the cDNA Resource Centre (Bloomsburg University) and are referred to as CRF1 and CRF2 in this manuscript. Hemagglutinin (HA) epitope‐tagged human Calcitonin (CT) receptor (CT(a) splice variant) and myc‐tagged human RAMP1 were used as described previously. ^27 HA‐tagged human calcitonin receptor‐like receptor (CLR), N‐terminal FLAG‐tagged human RAMP3 and N‐terminal myc‐tagged human RAMP3 were a gift from Professor David Poyner (Aston University) and Professor Patrick Sexton (Monash University), respectively. N‐terminal FLAG‐tagged human RAMP2 was used as described previously. ^28 All receptors and RAMPs were cloned in pcDNA3.0 or pcDNA3.1 plasmid vectors. All plasmid inserts were sequenced at the Centre for Genomics, Proteomics and Metabolomics (University of Auckland) and the sequences were verified prior to use.
Cos7, HEK‐293S, and HEK‐293T cells were cultured as described previously. ^28 , ^29 Cos7 cells were originally supplied by the ATCC to Associate Professor Nigel Birch (University of Auckland). HEK‐293S cells were a gift from Professor David Poyner (Aston University) and HEK‐293T cells a gift from Professor John Taylor (University of Auckland). Briefly, all cell lines were cultured in Dulbecco's Modified Eagle Medium (DMEM) supplemented with 8% heat inactivated fetal bovine serum (FBS) and maintained in a humidified incubator at 37°C with 5% CO2. For transfection, cells were counted (Countess CounterTM; Life Technologies) and plated at a density of 20 000 cells per well in 96‐well plates. The cells were transiently transfected 48 hours prior to assaying using polyethylenimine (PEI), as described previously. ^28 , ^29 In all experiments a total of 0.25 μg DNA was transfected per well. In the majority of experiments 0.25 μg DNA of receptor‐containing plasmid or the pcDNA3.1 plasmid without an insert was used. For experiments involving RAMPs, 0.125 μg of receptor DNA and 0.125 μg of RAMP‐containing plasmid DNA were transfected to give a 1:1 ratio of receptor to RAMP. Where the RAMP or receptor were transfected alone, the ratio of DNA was made up with the pcDNA3.1 plasmid.
The IP‐one Gq assay kit (Cisbio) was used to quantify accumulated myo‐inositol‐1‐phosphate (IP1), a by‐product of IP3 produced after receptor‐mediated Gαq activation in Cos7 and HEK‐293S cells. Briefly, culture media was removed and replaced with DMEM containing 0.1% BSA for 30 minutes at 37°C. Cells were then incubated with media containing 50 mmol/L lithium chloride (LiCl) for an additional 0‐120 minutes (time courses) or 90 minutes at 37°C in the presence or absence of an antagonist. Agonist concentrations of 1 pmol/L to 10 µmol/L were used for agonist only assays or 10 pmol/L to 10 µmol/L concentrations for antagonist experiments. After cell stimulation, 14 µL of stimulation buffer was added to each well. Three microlitres of each detection antibody were added in turn to the plate and incubated at room temperature for 1 hour. Fifteen microliters of sample was then transferred to a 384‐well optiplate and read by an Envision plate reader (PerkinElmer). IP1 concentrations were calculated from a standard curve generated in duplicate.
In all experiments the position of peptides and antagonists (pharmacology) or transfected receptors (ELISAs) on assay plates was randomized during each independent experiment, which are independent biological replicates. In all cases, duplicate, triplicate, or quadruplicate technical replicates were conducted for each independent experiment. For transfected cell experiments, each independent experiment involved plating cells from a distinct passage, separate transient transfection and separate signaling or ELISA assays, constituting experimental n. […]

CRF2 receptor (hCRF2α) = biological target: T2, CRF2 receptor (hCRF2α) (Homo sapiens, UniProt Q13324); test: Antagonism of agonist-mediated IP1 accumulation in Cos7 cells expressing CRF2 receptors; format: cell-based
T2 construct: host or cells: Cos7 cells, transient transfection (PEI), pcDNA3.0/3.1 vector
T2 sequence (Q13324 1-411): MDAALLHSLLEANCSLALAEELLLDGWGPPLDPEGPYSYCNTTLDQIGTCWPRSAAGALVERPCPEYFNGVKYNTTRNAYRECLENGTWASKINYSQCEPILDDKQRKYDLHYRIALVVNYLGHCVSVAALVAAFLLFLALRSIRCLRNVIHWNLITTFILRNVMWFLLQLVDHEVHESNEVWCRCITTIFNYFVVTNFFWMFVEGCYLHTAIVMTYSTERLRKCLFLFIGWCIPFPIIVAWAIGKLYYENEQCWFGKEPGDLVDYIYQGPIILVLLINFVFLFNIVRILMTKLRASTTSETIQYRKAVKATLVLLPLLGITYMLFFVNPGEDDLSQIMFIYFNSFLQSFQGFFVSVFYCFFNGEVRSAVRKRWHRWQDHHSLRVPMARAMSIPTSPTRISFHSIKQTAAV
Source text: as §1
Cos7, HEK‐293S, and HEK‐293T cells were cultured as described previously. ^28 , ^29 Cos7 cells were originally supplied by the ATCC to Associate Professor Nigel Birch (University of Auckland). HEK‐293S cells were a gift from Professor David Poyner (Aston University) and HEK‐293T cells a gift from Professor John Taylor (University of Auckland). Briefly, all cell lines were cultured in Dulbecco's Modified Eagle Medium (DMEM) supplemented with 8% heat inactivated fetal bovine serum (FBS) and maintained in a humidified incubator at 37°C with 5% CO2. For transfection, cells were counted (Countess CounterTM; Life Technologies) and plated at a density of 20 000 cells per well in 96‐well plates. […]
The IP‐one Gq assay kit (Cisbio) was used to quantify accumulated myo‐inositol‐1‐phosphate (IP1), a by‐product of IP3 produced after receptor‐mediated Gαq activation in Cos7 and HEK‐293S cells. […] Fifteen microliters of sample was then transferred to a 384‐well optiplate and read by an Envision plate reader (PerkinElmer). IP1 concentrations were calculated from a standard curve generated in duplicate. […]

Which selectivity (CRF1 receptor) does the source give for `CCC(CC)Nc1cc(C)nc(Oc2c(C)cc(C)cc2C)c1C` [CP‐376,395] here?
The selectivity was “selective for the CRF1 receptor”.

And the “potency against CRF‐mediated relative to UCN1‐mediated IP1 accumulation” value (CRF1 receptor (hCRF1α); CRF1 receptor)?
The value was “approximately 8 fold”.

What about the mode of antagonism (CRF1 receptor (hCRF1α); IP1 accumulation) of the same compound?
Its mode of antagonism is “non‐competitive antagonist of IP1 accumulation”.

And the “effect on agonist efficacy β” value (CRF1 receptor (hCRF1α); agonist CRF, IP1, CRF1)?
The value was ~ 0.

What about the “allosteric effect α” value (CRF1 receptor (hCRF1α); agonist CRF, IP1, CRF1) of the same compound?
The value was 0.03.

And the “antagonist potency (pKB)” value (CRF1 receptor (hCRF1α); agonist CRF, IP1, hCRF1α)?
The value was 7.55 ± 0.10.

What about the “effect on agonist efficacy β” value (CRF1 receptor (hCRF1α); agonist UCN1, IP1, CRF1) of the same compound?
The value was ~ 0.

What about the “allosteric effect α” value (CRF1 receptor (hCRF1α); agonist UCN1, IP1, CRF1) of the same compound?
The value was 0.15.

And the “antagonist potency (pKB)” value (CRF1 receptor (hCRF1α); agonist UCN1, IP1, hCRF1α)?
Its value is 6.67 ± 0.08.

What about the “effect on agonist E max” value (CRF1 receptor (hCRF1α); antagonism of CRF and UCN1‐mediated IP1, CRF1 receptor, F tests) of the same compound?
Its value is “a reduction in E max”.

And the “effect on CRF‐mediated IP1 accumulation” value (CRF2 receptor (hCRF2α); 100 µmol/L, CRF2 receptor)?
Its value is “appeared to be abolished”.

What about the “effect on agonist E max” value (CRF2 receptor (hCRF2α); IP1, CRF2 receptor, F tests) of the same compound?
Its value is “a reduction in E max”.

What about the “antagonist potency (pKB)” value (CRF2 receptor (hCRF2α); agonist UCN1, IP1, hCRF2α, Gaddum method for insurmountable antagonism, mean ± SEM, n = 6) of the same compound?
The value was 3.40 ± 0.29.
